Results published in US20260152498A1, “4,5,6,7-TETRAHYDRO-1H-PYRAZOLO[4,3-c]PYRIDINE COMPOUNDS AND DERIVATIVES AS USP1 INHIBITORS” (EXELIXIS, INC., priority 2022, published 2026).

Assays:
USP1-UAF1 complex [1] = molecular target: T1, USP1-UAF1 complex (Homo sapiens, UniProt O94782); conditions: 1.2 µM
Experimental: (§1) Biochemical Assay: The compounds were evaluated for their potential to inhibit USP1-UAF1 complex (Boston Biochem, Catalog: E568-050) using a fluorescence-based assay. The final concentrations of USP1-UAF1 complex protein and substrate Ubiquitin-Rhodamine-110 (R&D systems, Catalog U-555-050) used in the assay were 0.45 and 150 nM respectively. 50 mM HEPES pH. 7.5, 100 mM NaCl, 0.5 mM EDTA, 1 mM TCEP, 10% BSA, 0.01% Tween 20 buffer was used in the assay. The total assay volume was 20 μL. […] The final DMSO concentration in the assay was 1%. The compounds were pre-incubated with USP1-UAF1 complex at 25° C. for 15 min. After preincubation, required concentration of substrate was added and incubated at 25° C. for 60 min. Fluorescence at Excitation: 485 nm, Emission: 535 nm was measured in Victor-5 from Perkin Elmer.
(§2) To determine IC50 values, dose response curves were generated by plotting percentage inhibition as a function of inhibitor concentration and the data was fitted to sigmoidal non-linear regression equation (variable slope) using Graph Pad prism software V8.
(§3) The compounds were screened by the above-mentioned assay procedure.

USP1-UAF1 complex [2] = molecular target: T1, USP1-UAF1 complex; assay: biochemical
Experimental: as §1, §2, §3

T1 sequence (O94782 whole entry): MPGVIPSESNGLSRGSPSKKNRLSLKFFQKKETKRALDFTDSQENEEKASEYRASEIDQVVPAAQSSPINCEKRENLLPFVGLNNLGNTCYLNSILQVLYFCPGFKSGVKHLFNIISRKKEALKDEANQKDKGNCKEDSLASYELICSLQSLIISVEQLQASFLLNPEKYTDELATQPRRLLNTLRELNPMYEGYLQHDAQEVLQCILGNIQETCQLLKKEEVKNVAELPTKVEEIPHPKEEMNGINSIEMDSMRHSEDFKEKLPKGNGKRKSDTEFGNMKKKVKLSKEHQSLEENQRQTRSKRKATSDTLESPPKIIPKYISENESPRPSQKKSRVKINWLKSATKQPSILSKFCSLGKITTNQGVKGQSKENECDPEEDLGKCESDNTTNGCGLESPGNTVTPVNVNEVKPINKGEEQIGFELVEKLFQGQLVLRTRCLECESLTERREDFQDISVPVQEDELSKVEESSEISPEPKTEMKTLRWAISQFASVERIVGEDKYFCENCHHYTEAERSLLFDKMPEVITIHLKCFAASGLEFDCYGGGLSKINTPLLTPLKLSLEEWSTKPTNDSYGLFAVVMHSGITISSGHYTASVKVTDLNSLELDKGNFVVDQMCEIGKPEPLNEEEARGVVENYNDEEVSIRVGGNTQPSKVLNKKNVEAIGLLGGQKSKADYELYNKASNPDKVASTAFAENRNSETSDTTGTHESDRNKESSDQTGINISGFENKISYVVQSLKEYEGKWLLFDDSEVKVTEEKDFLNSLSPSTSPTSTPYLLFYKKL
T1 sequence (Q8TAF3 whole entry partner): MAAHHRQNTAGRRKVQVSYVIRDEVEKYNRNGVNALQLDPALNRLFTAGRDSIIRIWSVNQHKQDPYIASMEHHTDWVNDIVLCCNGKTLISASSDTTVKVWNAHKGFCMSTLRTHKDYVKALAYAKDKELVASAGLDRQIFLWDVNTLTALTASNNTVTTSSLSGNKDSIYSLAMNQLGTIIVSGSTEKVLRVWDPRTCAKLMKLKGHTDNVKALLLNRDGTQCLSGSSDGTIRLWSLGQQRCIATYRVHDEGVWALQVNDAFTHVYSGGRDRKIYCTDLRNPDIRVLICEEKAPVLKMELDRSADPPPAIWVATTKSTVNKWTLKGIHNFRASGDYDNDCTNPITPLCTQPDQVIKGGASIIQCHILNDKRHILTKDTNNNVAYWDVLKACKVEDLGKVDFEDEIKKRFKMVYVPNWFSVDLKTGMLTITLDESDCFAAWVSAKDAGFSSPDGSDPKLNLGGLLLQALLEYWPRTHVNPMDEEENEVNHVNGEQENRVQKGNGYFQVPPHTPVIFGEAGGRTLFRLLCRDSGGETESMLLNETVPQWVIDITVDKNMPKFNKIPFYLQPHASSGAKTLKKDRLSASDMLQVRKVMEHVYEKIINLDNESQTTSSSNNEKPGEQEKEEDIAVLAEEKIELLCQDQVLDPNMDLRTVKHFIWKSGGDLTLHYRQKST

Row | SMILES | inhibition (USP1-UAF1 complex [1]) | IC50 (USP1-UAF1 complex [2])
1 | COc1ncnc(C2CC2)c1-c1nn(C)c2c1CN(c1ccc(-c3nc(C(F)(F)F)cn3C)cn1)CC2(C)C [Compound 43, 3-(4-cyclopropyl-6-methoxypyrimidin-5-yl)-1,7,7-trimethyl-5-(5-(1-methyl-4-(trifluoromethyl)-1H-imidazol-2-yl)pyridin-2-yl)-4,5,6,7-tetrahydro-1H-pyrazolo[4,3-c]pyridine] | 98% | 50 to 100 nM
2 | COc1ncnc(C2CC2)c1-c1nn(C2CCC2)c2c1CN(c1ccc(-c3nc(C(F)(F)F)cn3C)cc1)CC2 [Compound 33, 1-cyclobutyl-3-(4-cyclopropyl-6-methoxypyrimidin-5-yl)-5-(4-(1-methyl-4-(trifluoromethyl)-1H-imidazol-2-yl)phenyl)-4,5,6,7-tetrahydro-1 H-pyrazolo[4,3-c]pyridine] | 90% | 50 to 100 nM
3 | CCn1nc(-c2c(OC)ncnc2C2CC2)c2c1CCN(c1ccc(-c3nc(C(F)(F)F)cn3C)nc1)C2 [Compound 25, 3-(4-cyclopropyl-6-methoxypyrimidin-5-yl)-1-ethyl-5-(6-(1-methyl-4-(trifluoromethyl)-1H-imidazol-2-yl)pyridin-3-yl)-4,5,6,7-tetrahydro-1H-pyrazolo[4,3-c]pyridine] | 92% | > 100 nM
4 | Cc1cnn(C(C)C)c1-c1nn(C)c2c1CN(c1ccc(-c3nc(C(F)(F)F)cn3C)cc1)CC2 [Compound 61, 3-(1-isopropyl-4-methyl-1H-pyrazol-5-yl)-1-methyl-5-(4-(1-methyl-4-(trifluoromethyl)-1H-imidazol-2-yl)phenyl)-4,5,6,7-tetrahydro-1H-pyrazolo[4,3-c]pyridine] | 98% | < 50 nM
5 | CCOc1cc(N2CCc3c(c(-c4c(OC)ncnc4C4CC4)nn3C)C2)ccc1-c1nc(C(F)(F)F)cn1C [Compound 47, 3-(4-cyclopropyl-6-methoxypyrimidin-5-yl)-5-(3-ethoxy-4-(1-methyl-4-(trifluoromethyl)-1H-imidazol-2-yl)phenyl)-1-methyl-4,5,6,7-tetrahydro-1H-pyrazolo[4,3-c]pyridine] | 95% | 50 to 100 nM
6 | COc1ncnc(C2CC2)c1-c1nn(C)c2c1CN(c1ccc(-c3nc(C(F)(F)F)cn3C)nc1)CC2C (centres unmarked) [Compound 39, 3-(4-cyclopropyl-6-methoxypyrimidin-5-yl)-1,7-dimethyl-5-(6-(1-methyl-4-(trifluoromethyl)-1H-imidazol-2-yl)pyridin-3-yl)-4,5,6,7-tetrahydro-1H-pyrazolo[4,3-c]pyridine] | 98% | 50 to 100 nM
7 | COc1ncnc(C2CC2)c1-c1nn(C)c2c1CN(c1cnc(-c3nc(C(F)(F)F)cn3C)cn1)CC2 [Compound 52, 3-(4-cyclopropyl-6-methoxypyrimidin-5-yl)-1-methyl-5-(5-(1-methyl-4-(trifluoromethyl)-1H-imidazol-2-yl)pyrazin-2-yl)-4,5,6,7-tetrahydro-1H-pyrazolo[4,3-c]pyridine] | 96% | 50 to 100 nM
8 | COc1ncnc(C2CC2)c1-c1nn(C)c2c1CN(c1ccc(-c3nc(C(F)(F)F)cn3C(C)C)cn1)CC2 [Compound 15, 3-(4-cyclopropyl-6-methoxypyrimidin-5-yl)-5-(5-(1-isopropyl-4-(trifluoromethyl)-1H-imidazol-2-yl)pyridin-2-yl)-1-methyl-4,5,6,7-tetrahydro-1H-pyrazolo[4,3-c]pyridine] | 96% | 50 to 100 nM
9 | COc1ncnc(C2CC2)c1-c1nn(C)c2c1CN(c1cnc(-n3nc(C(F)(F)F)cc3C)nc1)CC2 [Compound 51, 3-(4-cyclopropyl-6-methoxypyrimidin-5-yl)-1-methyl-5-(2-(5-methyl-3-(trifluoromethyl)-1H-pyrazol-1-yl)pyrimidin-5-yl)-4,5,6,7-tetrahydro-1H-pyrazolo[4,3-c]pyridine] | 95% | 50 to 100 nM
10 | CCOc1ncnc(C2CC2)c1-c1nn(C)c2c1CN(c1ccc(-c3nc(C(F)(F)F)cn3C)cc1)CC2 [Compound 58, 3-(4-cyclopropyl-6-ethoxypyrimidin-5-yl)-1-methyl-5-(4-(1-methyl-4-(trifluoromethyl)-1H-imidazol-2-yl)phenyl)-4,5,6,7-tetrahydro-1H-pyrazolo[4,3-c]pyridine] | 98% | < 50 nM
11 | COc1ncnc(C2CC2)c1-c1nn(Cc2ccccc2)c2c1CN(c1ccc(-c3nc(C(F)(F)F)cn3C)cn1)CC2 [Compound 37, 1-benzyl-3-(4-cyclopropyl-6-methoxypyrimidin-5-yl)-5-(5-(1-methyl-4-(trifluoromethyl)-1H-imidazol-2-yl)pyridin-2-yl)-4,5,6,7-tetrahydro-1H-pyrazolo[4,3-c]pyridine] | 98% | 50 to 100 nM
12 | CCn1nc(-c2c(OC)ncnc2C2CC2)c2c1CCN(c1ccc(-c3nc(C(F)(F)F)cn3C)cn1)C2 [Compound 26, 3-(4-cyclopropyl-6-methoxypyrimidin-5-yl)-1-ethyl-5-(5-(1-methyl-4-(trifluoromethyl)-1H-imidazol-2-yl)pyridin-2-yl)-4,5,6,7-tetrahydro-1H-pyrazolo[4,3-c]pyridine] | 90% | > 100 nM
13 | CCn1nc(-c2c(OC)ncnc2C2CC2)c2c1CCN(c1ccc(-c3nc(C(F)(F)F)cn3C)cc1)C2 [Compound 24, 3-(4-cyclopropyl-6-methoxypyrimidin-5-yl)-1-ethyl-5-(4-(1-methyl-4-(trifluoromethyl)-1H-imidazol-2-yl)phenyl)-4,5,6,7-tetrahydro-1H-pyrazolo[4,3-c]pyridine] | 98% | < 50 nM
